Data as given in patent publication US5039665A, “Use of fructose-1,6-diphosphate for treating myocardial infarction” (priority 1990, dated 1991).
“And” between values parts separate entries of the source, which are not always exact repeats. Equal values may be shown once. “Also recorded” adds a separate entry of the source.

Columns and labels:
[1] = test system: dogs subjected to hemorrhagic shock; assay: irreversible hemorrhagic shock in dogs (modified Wiggers technique, 35 mm Hg for 3 hours); format: in vivo, dog; settings: for survival after retransfusion: retransfused at three hours
Description: In the experiments regarding an irreversible hemorrhagic shock, results were obtained in the dog model using Wigger's modified technique. We compared a group of animals receiving IV administration of fructose-1,6-diphosphate (FDP) to a group receiving equimolar glucose.
The experiments were performed in b 25 pentobarbital anesthetized (30 mg/kg IV) mongrel dogs of both sexes. After induction of anesthesia the animals were […] and ventilated with a Harvard respiration pump with the use of ambient air. Secured in the left lateral decubitus position on the fluoroscopic table, a femoral artery was used to introduce a large bore polyethylene catheter which was connected to a 1.5 liter bottle elevated at 35 mm Hg above the atrial level. In the connecting system an external calibrated electromagnetic flow probe (Statham) was incorporated in order to follow the direction and amount of blood flow. The pressure in this system was monitored through a side opening with the aid of a Statham pressure gauge. The other femoral artery was percutaneously catheterized and a Judkins type pigtail catheter was advanced to the aortic root. In the course of the experiments this catheter was placed intermittently into the left ventricle when recordings were made. This set-up enable us to monitor both aortic and left ventricular pressures via a single catheter. The femoral vein on the side where the incision was made was catheterized as well as a superficial vein of the front limb transutaneously for administration of the FDP, glucose, heparin and supplemental anesthetic. Parameters such as aortic, ventricular and femoral pressures, and EKG were monitored on an Electronics for Medicine DR-8 recorder. Recording of these parameters was made every 15 min. Heparin ([…] initially and thereafter 3 mg/kg/2 hrs) and antibiotics were given to all animals that were allowed to recover. A control period of one hour was allowed prior to bleeding the animal. During this period two arterial blood samples were drawn for pH, pO2, pCO2, pCO2 combining power and lactic acid determinations. During the oliegemic phase four arterial samples were taken for determination of the same parameters described at 30 min, 1 hr, 2 hrs, and 2 hrs 45 min.
The blood from the animals was withdrawn via the femoral artery (50-55 ml/min) until the means arterial pressure dropped to 35 mm Hg and from then on the pressure was kept at this level for three hours. The protocol for evaluating the therapeutic effect of FDP was designed in the following manner. […] Both groups received an additional 500 mg IV bolus of FDP or glucose every 30 min for the duration of the oligemic phase. In five controls and six treated dogs the chest was opened at three hours and with the aid of a specially designed cutting tool that had been cooled in liquid nitrogen, frozen transmural sections from the left ventricle were taken for ATP, creatine phosphate (CP), FDP and lactic acid determinations. The remaining 14 animals (6 controls and 8 treated with FDP) were retransfused at three hours and allowed to recover.
The epicardium and endocardium from the frozen tissue were separated (while still frozen) and homogenized in 6% perchloric acid. The supernatant was used to determine ATP, CP and lactate. The ATP and creatine phosphate were assessed with the method described by Lamprecht (Lamprecht, W., and P. Stein. Methods of Enzymatic Analysis. Ed: H. V. Bergmeyer, New York, Academic Press, 1963, p. 610.) while lactate was measured by the method of Marback (Marback, E. P., and M. H. Weil. Rapid enzymatic measurement of blood lactate and pyruvate. Clin. Chem. 13: 314, 1967). Tissue content of FDP was assessed by the method of Bucher and Hohorst (Bucher, T., and H. J. Hohorst. Dihydroxyacetone phosphate, fructose 1-6 diphosphate and D-glyceraldehyde 3-phosphate. In. Methods of Enzymatic Analysis. Ed: Bermeyer, New York, Academic Press, 1963, pgs. 246-252.)

[2] = test system: hearts of mongrel dogs subjected to normothermic arrest; assay: global ischemia on cardiopulmonary bypass, normothermic arrest for one hour; format: in vivo, dog
Description: To evaluate the effect of FDP on global ischemia, 14 mongrel dogs were placed on cardiopulmonary bypass and their hearts were subjected to normothermic arrest for one hour. Seven animals had 50 ml. of 5% glucose in 0.9% NaCl infused into the base of the aorta at 0 minutes, 20 minutes and 40 minutes following cross-clamping and, systemically, during reperfusion. The remaining 7 animals were treated identically except that 50 mg. of FDP was given instead of glucose and 2mg/kg/minute was infused systemically during reperfusion. Hemodynamic measurements were taken before ischemia and at 15 and 30 minutes following reperfusion using an isovolumetric technique.

[3] = test system: dogs given potassium cyanide; assay: potassium cyanide poisoning in dogs; format: in vivo, dog; settings: 2 mg/kg IV potassium cyanide; 0.5 gm/kg over 30 minutes
blood = blood preservation: ATP content of refrigerated blood, 25, 50 and 100 mg per 10 ml; set-up: species or system dog
Description: The tests were also conducted under the conditions when 25mg, 50mg, and 100mg of FDP were mixed with 10ml of blood and 25mg, 50mg, and 100mg, of glucose were mixed with 10ml of blood. […]

human WBC = assay: carbohydrate metabolism of human white blood cells in vitro; format: cell-based; settings: for ATP content: incubated at 37° Celsius
Description: The tests were also conducted to investigate the effect of FDP on white blood cells (WBC) on metabolism in vitro. […] It was experimentally assessed whether FDP can stimulate the carbohydrate metabolism of these cells at rest. A similar phenomenon observed for normal human erythrocytes, sickle cells and dog erythrocytes. From healthy humans and dogs, the white blood cells were separated and incubated at 37° Celsius for various periods of time with FDP, glucose and normal saline. At the end of incubation, ATP and intermediates of the glycolytic pathway were assessed. […] The pyruvic acid concentration in dog WBC incubated with FDP was 10 times greater than those incubated in glucose while those for the human WBC, this difference was of much lesser degree (X2). The dihydroxyacetone (DHA) in the human and canine WBC was 5 to 10 times greater in the FDP incubated than in the glucose ones.

erythrocytes = assay: incubation of erythrocytes: ATP and 2-3 DPG content; format: cell-based
Excerpt: To allow for a broader and more complete interpretation of the results, a small paragraph will be devoted to the ability of FDP to cross the cellular membranes.

[4] = 25 mg with 10ml of blood, 24 hours
[5] = 25 mg with 10ml of blood, 48 hours
[6] = 50 mg with 10ml of blood, 24 hours
[7] = 50 mg with 10ml of blood, 48 hours
[8] = 100 mg with 10ml of blood, 24 hours
[9] = 100 mg with 10ml of blood, 48 hours

In the case of O=C(COP(=O)(O)O)[C@@H](O)[C@H](O)[C@H](O)COP(=O)(O)O [FDP, fructose-1,6-diphosphate], the “outcome of irreversible experimental hemorrhagic shock” value ([1]; 3 hour duration at 35mm Hg AP) is reported as “could be successfully treated with FDP”, the mortality ([1]; FDP by IV administration) is reported as “zero” and the “creatine phosphate (CP) depletion” value ([1]; FIG. 4, epicardium and endocardium, 35 mm. Hg. for 3 hours) is reported as “prevents depletion of creatine phosphate (CP) in both epicardium and endocardium”. For the same molecule, the “ATP content in the epicardium” value ([1]; FIG. 4, hypotension of 35 mm. Hg. for 3 hours, FDP vs controls) was “no significant difference in ATP content”, the myocardial contractility ([1]; Intravenous administration) was “improves the myocardial contractility” and the “arterial plasma lactic acid, course after 2 hours” value ([1]; after 2 hours of hemorrhage) was “the plasma lactate continued to rise”. The “heart rate return towards control” value ([1]; after retransfusion) was “returned faster towards control”, the ATP myocardial content ([1]; at three hours) was “normal ATP myocardial content and no transmural gradient” and the “CP in the epicardium (in words)” value ([1]; at three hours) was “no deficit in the epicardium”. For the same molecule, the “creatine phosphate (CP) in the endocardium, less than normal” value ([1]; at three hours) was 18%, the “endocardial/epicardial tissue lactate ratio” value ([1]; at three hours) was 2.26 ±0.26 and the “ATP and CP content in the myocardium / endocardium” value ([1]; dog, in vivo) was “restores ATP and CP content in the myocardium”. The “ST elevation (in words)” value ([1]; dog, in vivo) was “only minimal elevation was observed in two animals”, the “activity of glycolysis in the endocardium” value ([1]; dog, in vivo) was “restores the depressed activity of glycolysis in the endocardium” and the heart rate ([1]; dog, in vivo) was < 200 beats/min. For the same molecule, the “plasma lactate and myocardial tissue lactate” value ([1]; dog, in vivo) was “increased plasma lactate and myocardial tissue lactate”, the “ATP and CP content in the myocardium / endocardium” value ([1]; dog, in vivo, listed as Fructose diphosphate) was “increased significantly the ATP and CP in the endocardium” and the plasma lactate ([1]; measured at 2 hrs 45 min after the onset of hypotension) was 124±16 mg %. The “arterial pH” value ([1]; not exceptional in the group treated with FDP) was ≤ 6.8, the “animals with spontaneous reversal of blood flow (from the bottle to the animal)” value ([1]; oligemic phase) was “only two of them reversed their flow” and the “electrocardiographic (EKG) ischemic changes” value ([1]; oligemic phase) was “In both animals after FDP was given the ischemic changes disappeared; also recorded: prevents the EKG ischemic changes”. The “electrocardiographic (EKG) ischemic changes” value ([1]; oligemic phase, listed as Fructose diphosphate) was “prevented electrocardiographic ischemic changes”, the survival after retransfusion [1] was “All 8 dogs treated with FDP survived” and the “renal and bowel function, neurological deficit” value ([1]; surviving dogs) was “normal renal and bowel function and no neurological deficit was noted”. The “amount of blood uptake” value ([1]; two FDP animals with reversed flow) was 24 % of the shed blood and 17 % of the shed blood, the “ML to LVEDP of 20 mmHg” value ([2]; 15 minutes after reperfusion) was 33.6 ± 3.7 mL and the “Peak Effective pressure” value ([2]; 15 minutes after reperfusion) was 102.1 ± 11.5 mmHg. For the same molecule, the “Peak Mean pressure” value ([2]; 15 minutes after reperfusion) was 52.8 ± 5.4 mmHg, the Peak dp/dt ([2]; 15 minutes after reperfusion) was 2242 ± 226 mmHg/sec and the “ML to LVEDP of 20 mmHg” value ([2]; 30 minutes after reperfusion) was 36.1 ± 3.3 mL. The “Peak Effective pressure” value ([2]; 30 minutes after reperfusion) was 125 ± 11.5 mmHg, the “Peak Mean pressure” value ([2]; 30 minutes after reperfusion) was 61.4 ± 5.1 mmHg and the Peak dp/dt ([2]; 30 minutes after reperfusion) was 3999 ± 404 mmHg/sec. For the same molecule, the “contractility and compliance during recovery” value ([2]; Intra-aortic and systemic administration) was “Both contractility and compliance are vastly improved”, the “ML to LVEDP of 20 mmHg” value ([2]; Pre-Ischemia) was 39.3 ± 3.2 mL and the “Peak Effective pressure” value ([2]; Pre-Ischemia) was 165 ± 12.9 mmHg. For the same molecule, the “Peak Mean pressure” value ([2]; Pre-Ischemia) was 77.5 ± 4.6 mmHg, the Peak dp/dt ([2]; Pre-Ischemia) was 4710 ± 689 mmHg/sec and the survival [3] was “survived”. It also gave an ATP (blood; [4]) of 1.67 m mole/ml, an ATP (blood; [5]) of 1.92 m mole/ml and an ATP (blood; [6]) of 2.2 m mole/ml. It also gave an ATP (blood; [7]) of 2.85 m mole/ml, an ATP (blood; [8]) of 2.82 m mole/ml and an ATP (blood; [9]) of 3.40 m mole/ml. For the same molecule, the “effect on carbohydrate metabolism” value (human WBC) was “profound stimulating effect on the carbohydrate metabolism”, the “concentration dependence of ATP production” value (human WBC; 5 to 50 mg/ml FDP, no AMP or ADP) was “independent of the concentration (from 5 to 50 mg/ml), but rather a function of the incubation time” and the “concentration dependence of ATP increase” value (human WBC; AMP or ADP added) was “the increase of ATP becomes a function of the FDP concentration”. The ATP content (human WBC) was 2.47±0.25 m.mole/#WBC, the “ATP and 2-3 DPG in the erythrocytes” value (erythrocytes) was “substantial increase of ATP and 2-3 DPG in the erythrocytes” and the “ATP and 2-3 DPG content in erythrocytes” value (erythrocytes; 5% FDP) was “large increase in their ATP and 2-3 DPG content”.
O=C[C@H](O)[C@@H](O)[C@H](O)[C@H](O)CO [glucose, reference compound] was tested, and the “ischemic EKG changes in control (glucose) animals” value ([1]; 55 min to 1 hour 15 minutes after onset of shock) was “All control animals demonstrated ischemic EKG changes”, the “creatine phosphate (CP) in the endocardium, less than normal” value ([1]; at three hours) was 88% and the “creatine phosphate (CP) in the epicardium, less than normal” value ([1]; at three hours) was 64%. For the same molecule, the “endocardial ATP content, fall” value ([1]; at three hours) was 50%, the “endocardial/epicardial tissue lactate ratio” value ([1]; at three hours) was 1.52±0.21 and the ST elevation ([1]; maximum at 2 hours, precordial leads) was 0.55±0.17 mV. For the same molecule, the survival after retransfusion [1] was “All 6 control animals that were retransfused died within 24 hours”, the “ML to LVEDP of 20 mmHg” value ([2]; 15 minutes after reperfusion) was 23.3 ± 1.8 mL and the “Peak Effective pressure” value ([2]; 15 minutes after reperfusion) was 36.9 ± 4.4 mmHg. The “Peak Mean pressure” value ([2]; 15 minutes after reperfusion) was 17.8 ± 4.2 mmHg, the Peak dp/dt ([2]; 15 minutes after reperfusion) was 1126 ± 216 mmHg/sec and the “ML to LVEDP of 20 mmHg” value ([2]; 30 minutes after reperfusion) was 19.3 ± 1.3 mL. For the same molecule, the “Peak Effective pressure” value ([2]; 30 minutes after reperfusion) was 50.8 ± 6.3 mmHg, the “Peak Mean pressure” value ([2]; 30 minutes after reperfusion) was 20.5 ± 2.9 mmHg and the Peak dp/dt ([2]; 30 minutes after reperfusion) was 1698 ± 350 mmHg/sec. For the same molecule, the “ML to LVEDP of 20 mmHg” value ([2]; Pre-Ischemia) was 51.4 ± 8.6 mL, the “Peak Effective pressure” value ([2]; Pre-Ischemia) was 144.6 ± 14.6 mmHg and the “Peak Mean pressure” value ([2]; Pre-Ischemia) was 66.4 ± 7.4 mmHg. For the same molecule, the Peak dp/dt ([2]; Pre-Ischemia) was 4894 ± 689 mmHg/sec, the survival [3] was “died” and the ATP (blood; [4]) was 0.475 m mole/ml. It also gave an ATP (blood; [5]) of 0.475 m mole/ml, an ATP (blood; [6]) of 0.375 m mole/ml and an ATP (blood; [7]) of 0.450 m mole/ml. For the same molecule, the ATP (blood; [8]) was 0.250 m mole/ml, the ATP (blood; [9]) was 0.426 m mole/ml and the ATP content (human WBC) was 1.28±0.21 m.mole/#WBC. The “ATP content in the erythrocytes” value (erythrocytes; equimolar, same conditions) was “failed to increase the ATP content”.
